The record followed here is DBAASP.

Each structure is given as a SMILES string. In brackets after ≈: the same amount, converted by molar mass. Several values for one entry are separate records, joined by “and”; a condition that tells them apart may be missing. Equal values may be shown once. Where only a bound is given, the exact number is not on record here.

Holding throughout (assay): ≥ marks a high value that may be exact or a test limit, other limits are often not marked, values filed in µg/mL are converted to µM
Experiment [1] concerns Escherichia coli KCTC 1682.
In experiment [2] the test system is Staphylococcus aureus KCTC 1621.
Experiment [3] concerns Pseudomonas aeruginosa KCTC 1637.
The test system of experiment [4] is Bacillus subtilis KCTC 3068.
The subject of experiment [5] is Staphylococcus epidermidis KCTC 1917.
In experiment [6] the test system is Salmonella typhimurium KCTC 1926.
In experiment [7] the test system is Staphylococcus aureus.
Experiment [8] deals with Pseudomonas aeruginosa.
For experiment [9], the system named is Escherichia coli B.
Experiment [10] concerns Bacillus subtilis 168.
Experiment [11] concerns Escherichia coli ATCC 25922.
In experiment [12] the test system is Klebsiella pneumoniae ATCC 13883.
Experiment [13] concerns Acinetobacter baumannii.
The test system of experiment [14] is Staphylococcus aureus ATCC 25923.
In experiment [15] the test system is Klebsiella pneumoniae.
Experiment [16] relates to Salmonella enterica subsp. enterica serovar Typhimurium ATCC 14028.

The term MIC denotes the lowest concentration found to suppress growth. On to `CC[C@H](C)[C@H](NC(=O)[C@H](C)NC(=O)[C@H](CCCN=C(N)N)NC(=O)[C@H](Cc1ccccc1)NC(=O)[C@@H](NC(=O)[C@H](Cc1cnc[nH]1)NC(=O)[C@H](Cc1cnc[nH]1)NC(=O)[C@H](Cc1ccccc1)NC(=O)[C@@H](N)Cc1ccccc1)[C@@H](C)CC)C(=O)N[C@H](C(=O)N[C@@H](Cc1cnc[nH]1)C(=O)N[C@H](C(=O)NCC(=O)N[C@@H](CCCCN)C(=O)N[C@H](C(=O)N[C@H](C(=O)N[C@@H](Cc1cnc[nH]1)C(=O)N[C@@H](CCCN=C(N)N)C(=O)N[C@@H](CC(C)C)C(=O)N[C@H](C(=O)N[C@H](C(=O)NCC(=O)O)[C@@H](C)O)C(C)C)[C@@H](C)CC)[C@@H](C)O)C(C)C)C(C)C` [FFHHIFRAIVHVGKTIHRLVTG], for which the minimum inhibitory concentration (MIC) worked out at 2 µM (≈ 5.17 µg/mL) in [1]; 2 µM (≈ 5.17 µg/mL) in [2]; 4 µM (≈ 10.3 µg/mL) in experiment [3]; 2 µM (≈ 5.17 µg/mL) in [4]; 1 µM (≈ 2.59 µg/mL) in [5]; 1 µM (≈ 2.59 µg/mL) in [6].

Take `CC[C@H](C)[C@H](NC(=O)[C@H](CCCCN)NC(=O)[C@H](CCCCN)NC(=O)[C@H](Cc1c[nH]c2ccccc12)NC(=O)[C@@H](NC(=O)[C@@H](N)CC(N)=O)C(C)C)C(=O)N[C@@H](CC(C)C)C(=O)NCC(=O)N[C@@H](CCCCN)C(=O)N[C@H](C(=O)N[C@H](C(=O)N[C@@H](CCCCN)C(=O)N[C@H](C(=O)N[C@@H](C)C(=O)N[C@@H](CCCCN)C(N)=O)C(C)C)[C@@H](C)CC)[C@@H](C)CC` [NVWKKILGKIIKVAK]: the MIC in experiment [7] amounted to 19.7 µM (≈ 34.2 µg/mL); in [8], 23.3 µM (≈ 40.5 µg/mL); in experiment [9] it was 1.1 µM (≈ 1.91 µg/mL); in experiment [10], 0.7 µM (≈ 1.22 µg/mL).

`CC[C@H](C)[C@H](NC(=O)[C@H](CO)NC(=O)[C@H](CC(C)C)NC(=O)[C@H](Cc1ccccc1)NC(=O)CN)C(=O)N[C@@H](CC(C)C)C(=O)N[C@@H](CCCCN)C(=O)N[C@@H](CCCCN)C(=O)N[C@H](C(=O)N[C@@H](CC(C)C)C(=O)N[C@@H](CCCCN)C(=O)N[C@@H](CCCCN)C(=O)N[C@H](C(=O)N[C@@H](CCSC)C(=O)N[C@@H](C)C(=O)N[C@@H](Cc1cnc[nH]1)C(=O)N[C@@H](CCSC)C(=O)N[C@@H](CCCCN)C(N)=O)C(C)C)C(C)C` [GFLSILKKVLKKVMAHMK]: the MIC in [7] was found to be 13.8 µM (≈ 28.6 µg/mL); in experiment [8], 25.3 µM (≈ 52.4 µg/mL); in experiment [9], 1.8 µM (≈ 3.73 µg/mL); in experiment [10], 1.4 µM (≈ 2.9 µg/mL).

In the case of `CC[C@H](C)[C@H](NC(=O)[C@H](CCCCN)NC(=O)[C@H](CC(C)C)NC(=O)[C@H](CC(C)C)NC(=O)[C@@H](N)CCCCN)C(=O)N[C@@H](Cc1c[nH]c2ccccc12)C(=O)N[C@@H](Cc1c[nH]c2ccccc12)C(=O)N[C@H](C(=O)N[C@@H](CCCCN)C(=O)N[C@H](C(=O)N[C@@H](CC(C)C)C(=O)N[C@@H](CCCCN)C(N)=O)C(C)C)[C@@H](C)CC` [KLLKIWWIKVLK], the MIC was 7.97 µM (≈ 12.5 µg/mL) in experiment [1]; 7.97 µM (≈ 12.5 µg/mL) in [2]; 3.99 µM (≈ 6.25 µg/mL) in [3]; 7.97 µM (≈ 12.5 µg/mL) in experiment [4]; 3.99 µM (≈ 6.25 µg/mL) in [5]; 2 µM (≈ 3.13 µg/mL) in [6].

`CC[C@H](C)[C@H](N)C(=O)N[C@@H](CC(C)C)C(=O)N1CCC[C@H]1C(=O)N[C@@H](Cc1c[nH]c2ccccc12)C(=O)N[C@@H](CCCCN)C(=O)N[C@@H](Cc1c[nH]c2ccccc12)C(=O)N[C@@H](CCCCN)C(=O)N[C@@H](Cc1c[nH]c2ccccc12)C(=O)N[C@@H](Cc1c[nH]c2ccccc12)C(=O)N[C@@H](CCCCN)C(=O)N[C@@H](Cc1c[nH]c2ccccc12)C(=O)N[C@@H](CCCN=C(N)N)C(=O)N[C@@H](CCCN=C(N)N)C(N)=O` [ILPWKWKWWKWRR]: the MIC in experiment [1] was determined as 5.08 µM (≈ 10 µg/mL); in [2] it was 2.54 µM (≈ 5 µg/mL); in experiment [3], 5.08 µM (≈ 10 µg/mL); in experiment [4], 2.54 µM (≈ 5 µg/mL); in experiment [5] it was 5.08 µM (≈ 10 µg/mL); in experiment [6] it was 5.08 µM (≈ 10 µg/mL).

On to `CC(C)C[C@H](NC(=O)[C@H](Cc1ccccc1)NC(=O)[C@H](CCCCN)NC(=O)[C@H](Cc1c[nH]c2ccccc12)NC(=O)[C@H](Cc1c[nH]c2ccccc12)NC(=O)[C@H](Cc1c[nH]c2ccccc12)NC(=O)[C@H](CCCCN)NC(=O)[C@H](Cc1ccccc1)NC(=O)[C@H](CCCN=C(N)N)NC(=O)[C@H](CCCN=C(N)N)NC(=O)[C@@H](N)C(C)C)C(=O)N[C@@H](CCCN=C(N)N)C(=O)N[C@@H](CCCN=C(N)N)C(N)=O` [VRRFKWWWKFLRR], for which the MIC came to 2 µM (≈ 3.93 µg/mL) in experiment [1]; 1 µM (≈ 1.96 µg/mL) in [2]; 4 µM (≈ 7.85 µg/mL) in [3]; 0.5 µM (≈ 0.982 µg/mL) in [4]; 0.5 µM (≈ 0.982 µg/mL) in experiment [5]; 2 µM (≈ 3.93 µg/mL) in [6].

On to `CC(C)C[C@H](NC(=O)[C@H](C)NC(=O)[C@H](CCCN=C(N)N)NC(=O)[C@H](C)NC(=O)[C@H](Cc1c[nH]c2ccccc12)NC(=O)CNC(=O)[C@H](CCCN=C(N)N)NC(=O)[C@@H](N)CCCN=C(N)N)C(=O)N[C@@H](C)C(=O)N[C@@H](Cc1ccccc1)C(=O)N[C@@H](C)C(=O)N[C@@H](Cc1ccccc1)C(=O)NCC(=O)N[C@@H](CCCN=C(N)N)C(N)=O` [RRGWARALAFAFGR], for which the MIC in experiment [11] was 6.6 µM and 15.5 µM; in experiment [12] it was 14.8 µM and 30 µM; in [13], 1.8 µM (≈ 2.94 µg/mL); in experiment [14] it was greater than 30 µM; in experiment [15], 1.9 µM (≈ 3.1 µg/mL).

Consider `CC[C@H](C)[C@H](N)C(=O)NCC(=O)N[C@@H](CCCCN)C(=O)N[C@@H](CCCCN)C(=O)N[C@@H](Cc1ccccc1)C(=O)N[C@@H](CCCCN)C(=O)N[C@@H](CCCN=C(N)N)C(=O)N[C@H](C(=O)N[C@H](C(=O)N[C@@H](CCC(N)=O)C(=O)N[C@@H](CCCN=C(N)N)C(=O)N[C@H](C(=O)N[C@@H](CCCCN)C(=O)N[C@@H](CC(=O)O)C(=O)N[C@@H](Cc1ccccc1)C(=O)N[C@@H](CC(C)C)C(=O)N[C@@H](CCCN=C(N)N)C(=O)N[C@@H](CC(N)=O)C(=O)N[C@@H](CC(C)C)C(=O)O)[C@@H](C)CC)C(C)C)[C@@H](C)CC` [IGKKFKRIVQRIKDFLRNL], for which the MIC came to 8 µM (≈ 19 µg/mL) in experiment [1]; 4 µM (≈ 9.49 µg/mL) in [2]; 8 µM (≈ 19 µg/mL) in experiment [3]; 2 µM (≈ 4.75 µg/mL) in [4]; 2 µM (≈ 4.75 µg/mL) in experiment [5]; 2 µM (≈ 4.75 µg/mL) in experiment [6].

Consider `CSCC[C@H](NC(=O)[C@H](Cc1cnc[nH]1)NC(=O)[C@H](C)NC(=O)[C@H](CCSC)NC(=O)[C@@H](NC(=O)[C@@H](N)CCCCN)C(C)C)C(=O)N[C@@H](CCCCN)C(N)=O` [KVMAHMK], for which the MIC in experiment [9] and in experiment [10] was no less than 100 µM throughout.

For `CC(C)C[C@H](NC(=O)[C@H](CCCN=C(N)N)NC(=O)[C@H](CCCN=C(N)N)NC(=O)[C@H](C)NC(=O)[C@H](Cc1c[nH]c2ccccc12)NC(=O)CNC(=O)[C@H](CCCN=C(N)N)NC(=O)[C@@H](N)CCCN=C(N)N)C(=O)N[C@@H](Cc1ccccc1)C(=O)N[C@@H](C)C(=O)N[C@@H](C)C(=O)N[C@@H](Cc1ccccc1)C(=O)NCC(=O)N[C@@H](CCCN=C(N)N)C(=O)N[C@@H](CCCN=C(N)N)C(N)=O` [RRGWARRLFAAFGRR], the MIC in experiment [11] is 11.5 µM and 30 µM; in experiment [16], 10.6 µM and 30 µM; in experiment [12] it was 30 µM (≈ 56.3 µg/mL); in experiment [13] it was 4.8 µM (≈ 9 µg/mL); in experiment [14] it was greater than 30 µM; in experiment [15], 1.8 µM (≈ 3.38 µg/mL).

Consider `CC[C@H](C)[C@H](N)C(=O)NCC(=O)N[C@@H](CCCCN)C(=O)N[C@@H](CC(C)C)C(=O)N[C@@H](Cc1ccccc1)C(=O)N[C@@H](CCCCN)C(=O)N[C@@H](CCCN=C(N)N)C(=O)N[C@H](C(=O)N[C@H](C(=O)N[C@@H](CCC(N)=O)C(=O)N[C@@H](CCCN=C(N)N)C(=O)N[C@H](C(=O)N[C@@H](CCCCN)C(=O)N[C@@H](CCCCN)C(=O)N[C@@H](Cc1ccccc1)C(=O)N[C@@H](CC(C)C)C(=O)N[C@@H](CCCN=C(N)N)C(=O)N[C@@H](CC(N)=O)C(=O)N[C@@H](CC(C)C)C(=O)O)[C@@H](C)CC)C(C)C)[C@@H](C)CC` [IGKLFKRIVQRIKKFLRNL], for which the MIC in experiment [1] came to 8 µM (≈ 19 µg/mL); in experiment [2], 8 µM (≈ 19 µg/mL); in [3], 8 µM (≈ 19 µg/mL); in experiment [4], 4 µM (≈ 9.48 µg/mL); in [5], 4 µM (≈ 9.48 µg/mL); in [6] it was 4 µM (≈ 9.48 µg/mL).

With `CC[C@H](C)[C@H](N)C(=O)NCC(=O)N[C@@H](CCCCN)C(=O)N[C@@H](CCCCN)C(=O)N[C@@H](Cc1ccccc1)C(=O)N[C@@H](CCCCN)C(=O)N[C@@H](CCCN=C(N)N)C(=O)N[C@H](C(=O)N[C@H](C(=O)N[C@@H](CCC(N)=O)C(=O)N[C@@H](CCCN=C(N)N)C(=O)N[C@H](C(=O)N[C@@H](CCCCN)C(=O)N[C@@H](CCCCN)C(=O)N[C@@H](Cc1ccccc1)C(=O)N[C@@H](CC(C)C)C(=O)N[C@@H](CCCN=C(N)N)C(=O)N[C@@H](CC(N)=O)C(=O)N[C@@H](CC(C)C)C(=O)O)[C@@H](C)CC)C(C)C)[C@@H](C)CC` [IGKKFKRIVQRIKKFLRNL], the MIC came out at 8 µM (≈ 19.1 µg/mL) in [1]; 4 µM (≈ 9.54 µg/mL) in experiment [2]; 8 µM (≈ 19.1 µg/mL) in [3]; 2 µM (≈ 4.77 µg/mL) in experiment [4]; 2 µM (≈ 4.77 µg/mL) in experiment [5]; 8 µM (≈ 19.1 µg/mL) in experiment [6].
